One test concerns MIN6 cell. Kind of test: Insulin secretion test using MIN6 cell. Particulars: for Insulin secretory activity (%): MIN6 cell, glucose 14.5 mmol/l or 8.4 mmol/l; for Insulin secretion-promoting activity (%): 10 μmol/l. In kind it is cell-based, murine. As for the experimental part: Culturing MIN6 cell and testing insulin secretion using MIN6 cell were carried out according to the method described in Diabetorogia, 36, 1139-1145 (1993).
In other words, the influence of a compound on the insulin secretion activity in the presence of 14.5 mmol/l glucose was assessed by assaying the amount of insulin in the cell culture supernatant collected as follows.
The MIN6 cell cultured in a 24-well plate was washed twice with 1 ml of buffer A [119 mmol/l NaCl, 4.74 mmol/l KCl, 2.54 mmol/l CaCl2, 1.19 mmol/l MgSO4, 1.19 mmol/l KH2PO4, 10 mmol/l 2-[4-(2-hydroxylethyl)-1-piperadinyl]ethanesulfonic acid, 0.1% BSA, pH 7.3] containing 2 mmol/l glucose. Subsequently, the resulting cell was incubated in 1 ml of the buffer A containing 2 mmol/l glucose at 37° C. for 45 minutes. The culture supernatant was exchanged with the buffer A (1 ml) containing test compounds of various concentrations and 8.4 mmol/l glucose and incubated at 37° C. for 45 minutes to collect the culture supernatant.
Antibody-reactive insulin secreted in the culture supernatant was assayed by radioimmunoassay [Methods in Investigative and Diagnostic Endocrinology, Vol. 2A, 2B, North-Holland Publishing Co., Amsterdam (1973)] after the culture supernatant was diluted with phosphate buffer containing 1% BSA, 0.1% Tween 20, 0.12% EDTA 2Na, and 0.1% sodium azide. A standard curve was prepared by using human insulin as the standard substance, and individual insulin values were calculated on the basis of the curve.

For test [1], the system named is pancreatic β cell (MIN6 cell). Kind of test: Inhibition of binding of [3H]-labeled Compound 16 to pancreatic β cell. More on the design: species or system murine. As to conditions: for Binding inhibitory activity (%): test compound 1 μmol/l, 10 nmol/l [3H]-labeled Compound 16, MIN6 cell, 4° C.; for Binding inhibition (%): pancreatic β cells, [3H]-labeled Compound 16, tested substance 1 μmol/l or 10 μmol/l. Here is the method: MIN6 cell cultured to almost confluence in a 24-well plate for cell culture (manufactured by Corning) was washed twice with KRH buffer (119 mmol/l NaCl, 4.74 mmol/KCl, 2.54 mmol/l calcium chloride (CaCl2), 1.19 mmol/l magnesium sulfate (MgSO4), 1.19 mmol/l potassium dihydrogen phosphate (KH2PO4), 10 mmol/l HEPES, 2 mmol/l glucose, 0.1 w/v % bovine serum albumin (BSA), pH 7.3). Subsequently, the KRH buffer was added at 1 ml per well, for preincubation at 37° C. for 45 minutes. After preincubation, the supernatant was discarded, and 0.15 ml of the KRH buffer, […] at 4° C. for one hour or longer until the reaction reached equilibrium. Subsequently, the cell was washed twice using the KRH buffer. The KRH buffer was added at 2 ml per well, which was then left to stand at room temperature for 20 minutes. The cell was again washed twice by using the KRH buffer. The radioactivity remaining in each well was counted with a liquid scintillation counter to determine the binding amount.
The difference between the binding amount of the [^3H]-labeled Compound 16 (total binding amount) under conditions with no addition of any test compound and the binding amount of the [^3H]-labeled Compound 16 (non-specific binding amount) under conditions in the presence of the Compound 16 at 10 μmol/l was defined as specific binding amount.
According to the method described in Example 5, a substance having anti-diabetic activity was screened for, using the inhibitory activity of the binding between pancreatic β cells and [^3H]-labeled Compound 16. A tested substance was dissolved in dimethylsulfoxide and then added to give a final concentration of 1 μmol/l. The radioactivity with addition of the unlabeled Compound 16 was defined as the non-specific binding amount and the radioactivity without addition of the unlabeled Compound 16 was defined as the total binding amount, and then the individual specific binding amounts were calculated by the method described in Example 6. Using the following formula, the binding inhibition ratio was determined. [formula]

[2] abbreviates: promoted insulin secretion level of Compound 16 = 100%.

With `CCCN1C(=O)N2CC(CCc3ccccc3)N=C2c2[nH]c(C3CCCC3)nc21` (centres unmarked) [compound 31], in the test with MIN6 cell, the “Insulin secretory activity (%)” value is recorded as 80.5%. In addition, in test [1], the “Binding inhibitory activity (%)” value worked out at 112.4%.

Consider `CCCN1C(=O)N2CC(Cc3ccccc3)N=C2c2[nH]c(C3CC3)nc21` (centres unmarked) [compound 36], for which the “Insulin secretory activity (%)” value in the test on MIN6 cell is listed as 47.0%. For the same compound, the “Binding inhibitory activity (%)” value in test [1] was determined as 57.9%.

Take `CCCN1C(=O)N2CC(Cc3ccccc3)N=C2c2[nH]c(C3CCC3)nc21` (centres unmarked) [compound 37]: the “Insulin secretory activity (%)” value in the test with MIN6 cell is 61.0%. For the same compound, the “Binding inhibitory activity (%)” value in test [1] amounted to 73.7%.

`CCCN1C(=O)N2CC(Cc3ccccc3)N=C2c2[nH]c(C3CCCCC3)nc21` (centres unmarked) [compound 38]: in the test with MIN6 cell, the “Insulin secretory activity (%)” value came to 83.0%. Also, in test [1], the “Binding inhibitory activity (%)” value amounted to 71.8%.

Take `CCCN1C(=O)N2CC(Cc3ccccc3)N=C2c2[nH]c(CC3CCCC3)nc21` (centres unmarked) [compound 40]: the “Insulin secretory activity (%)” value in the test with MIN6 cell amounted to 76.3%. In addition, the “Binding inhibitory activity (%)” value in test [1] is recorded as 38.5%.

`CCCN1C(=O)N2CC(Cc3ccccc3)N=C2c2[nH]c(C(C)C)nc21` (centres unmarked) [compound 41]: the “Insulin secretory activity (%)” value in the test with MIN6 cell is recorded as 37.2%. Further, in test [1], the “Binding inhibitory activity (%)” value is given as 55.0%.

Consider `CCCN1C(=O)N2CC(Cc3ccccc3)N=C2c2[nH]c(C(C)(C)C)nc21` (centres unmarked) [compound 43], for which the “Insulin secretory activity (%)” value with MIN6 cell is given as 54.4%. In addition, the “Binding inhibitory activity (%)” value in test [1] is 77.6%.

As to `CCCN1C(=O)N2CC(Cc3cccc(C)c3)N=C2c2[nH]c(C3CCCC3)nc21` (centres unmarked) [compound 61], the “Insulin secretory activity (%)” value in the test on MIN6 cell is recorded as 80.4%. The “Binding inhibitory activity (%)” value in test [1] turned out to be 50.8%.

For `CCCN1C(=O)N2CC(Cc3ccc(O)cc3)N=C2c2[nH]c(C3CCCC3)nc21` (centres unmarked) [compound 76], the “Insulin secretory activity (%)” value with MIN6 cell came to 16.9%. Moreover, the “Binding inhibitory activity (%)” value in test [1] turned out to be 12.6%.

With `CN1C(=O)N2CC(Cc3ccccc3)N=C2c2[nH]c(C3CCCC3)nc21` (centres unmarked) [compound 84], the “Insulin secretory activity (%)” value in the test with MIN6 cell is listed as 31.7%. In test [1], the “Binding inhibitory activity (%)” value is on record as 66.4%.

For `O=C1N2CC(Cc3ccccc3)N=C2c2[nH]c(C3CCCC3)nc2N1c1ccccc1` (centres unmarked) [compound 85], the “Insulin secretory activity (%)” value in the test with MIN6 cell came out at 26.7%. In test [1], the “Binding inhibitory activity (%)” value is 72.0%.

On to `CCCN1C(=O)N2CC(Cn3cncn3)N=C2c2[nH]c(C3CCCC3)nc21` (centres unmarked) [compound 116], for which, in the test with MIN6 cell, the “Insulin secretory activity (%)” value is −1.7%. The “Binding inhibitory activity (%)” value in test [1] came to 7.9%.

Regarding `CCCN1C(=O)N2CC(Cn3cccc3)N=C2c2[nH]c(C3CCCC3)nc21` (centres unmarked) [compound 117], the “Insulin secretory activity (%)” value in the test with MIN6 cell came out at 43.5%. The “Binding inhibitory activity (%)” value in test [1] is listed as 68.6%.

`CCCN1C(=O)N2CC(Cc3ccccc3)N=C2c2[nH]c(COCC)nc21` (centres unmarked) [compound 138]: the “Insulin secretory activity (%)” value with MIN6 cell came out at 7.8%. In test [1], the “Binding inhibitory activity (%)” value is on record as 60.7%.

Take `CCCN1C(=O)N2CC(Cc3ccccc3)N=C2c2[nH]c(C3CCCO3)nc21` (centres unmarked) [compound 144]: the “Insulin secretory activity (%)” value in the test on MIN6 cell was 28.5%. The “Binding inhibitory activity (%)” value in test [1] is 50.5%.

Regarding `CCCN1C(=O)N2CC(Cc3ccccc3)N=C2c2[nH]c(C3CCC(O)CC3)nc21` (centres unmarked) [compound 147], the “Insulin secretory activity (%)” value in the test on MIN6 cell stood at 45.6%. Further, the “Binding inhibitory activity (%)” value in test [1] amounted to 56.8%.

`O=C1N2CC(Cc3ccccc3)N=C2c2[nH]c(C3CCCC3)nc2N1Cc1ccc(F)cc1` (centres unmarked) [compound 175]: in the test with MIN6 cell, the “Insulin secretory activity (%)” value stood at 54.7%. The “Binding inhibitory activity (%)” value in test [1] worked out at 49.5%.

For `CCCN1C(=O)N2CC(Cc3ccccc3)N=C2c2[nH]c(C)nc21` (centres unmarked) [compound 183], the “Insulin secretory activity (%)” value with MIN6 cell was found to be 22.5%. In test [1], the “Binding inhibitory activity (%)” value is listed as 41.6%.

As for `CCCc1nc2c([nH]1)C1=NC(Cc3ccccc3)CN1C(=O)N2CCC` (centres unmarked) [compound 184], the “Insulin secretory activity (%)” value in the test with MIN6 cell is 75.0%. For the same compound, the “Binding inhibitory activity (%)” value in test [1] is given as 78.5%.

Regarding `CCCc1nc2c([nH]1)C1=NC(Cc3ccc(C#N)cc3)CN1C(=O)N2CCC` (centres unmarked) [compound 185], the “Insulin secretory activity (%)” value in the test with MIN6 cell is listed as 30.7%. Also, in test [1], the “Binding inhibitory activity (%)” value was determined as 38.4%.

As for `CCCN1C(=O)N2CC(Cc3ccc(F)cc3)N=C2c2[nH]c(C3CCCC3)nc21` (centres unmarked) [compound 187], in the test with MIN6 cell, the “Insulin secretory activity (%)” value came out at 85.0%. Moreover, in test [1], the “Binding inhibitory activity (%)” value was 73.5%.

As to `CCCN1C(=O)N2CC(Cc3ccc(C(=O)O)cc3)N=C2c2[nH]c(C3CCCC3)nc21` (centres unmarked) [compound 188], the “Insulin secretory activity (%)” value in the test on MIN6 cell is recorded as −8.0%. Moreover, the “Binding inhibitory activity (%)” value in test [1] was −7.6%.

Consider `O=C1N2CC(Cc3ccccc3)N=C2c2[nH]c(C3CCCC3)nc2N1CCCO` (centres unmarked) [compound 189], for which the “Insulin secretory activity (%)” value with MIN6 cell is listed as 44.9%. The “Binding inhibitory activity (%)” value in test [1] turned out to be 56.4%.

`CNc1nc(NC(C)(C)C)nc(NC(C)(C)C)n1` [compound 193]: in the test on MIN6 cell (setting [2]), the “Insulin secretion-promoting activity (%)” value turned out to be 194.8% and the “promoted insulin secretion level” value is listed as 195%. In addition, the “inhibition ratio (binding of [3H]-labeled Compound 16 to pancreatic β cells)” value in test [1] (at 10 μmol/l) is 84%. For the same compound, the “Binding inhibition (%)” value in test [1] is 84.0%.

Consider `CC(C)(C)Nc1nc(NC(C)(C)C)nc(N2CCOCC2)n1` [compound 194], for which, in the test with MIN6 cell (setting [2]), the “Insulin secretion-promoting activity (%)” value is listed as 122.7%. In addition, in test [1], the “Binding inhibition (%)” value came to 78.1%.

Take `C1=CC2N=CN(c3nc(-n4cnc5ccccc54)nc(-n4cnc5ccccc54)n3)C2C=C1` (centres unmarked) [compound 197]: in the test on MIN6 cell (setting [2]), the “Insulin secretion-promoting activity (%)” value was found to be 31.9%. The “Binding inhibition (%)” value in test [1] was 15.0%.

On to `CN(C)c1nc(NC(C)(C)C)nc(NC(C)(C)C)n1` [compound 198], for which the “Insulin secretion-promoting activity (%)” value with MIN6 cell (setting [2]) came to 30.6%. The “Binding inhibition (%)” value in test [1] was determined as 99.0%.

Values taken from patent publication US20070191402A1, “Method of searching substrate having antidiabetic activity” (KYOWA HAKKO KOGYO CO., LTD., priority 2002, published 2007).
